In patent US20250325552A1, “SUBSTITUTED THIADIAZOLYL DERIVATIVES AS DNA POLYMERASE THETA INHIBITORS” (IDEAYA Biosciences, Inc., priority 2020, published 2025) one finds IC50 data, which are given here for eleven compounds.

One may read the IC50 as the concentration that gives 50% inhibition.

T1 sequence (O75417 1-899): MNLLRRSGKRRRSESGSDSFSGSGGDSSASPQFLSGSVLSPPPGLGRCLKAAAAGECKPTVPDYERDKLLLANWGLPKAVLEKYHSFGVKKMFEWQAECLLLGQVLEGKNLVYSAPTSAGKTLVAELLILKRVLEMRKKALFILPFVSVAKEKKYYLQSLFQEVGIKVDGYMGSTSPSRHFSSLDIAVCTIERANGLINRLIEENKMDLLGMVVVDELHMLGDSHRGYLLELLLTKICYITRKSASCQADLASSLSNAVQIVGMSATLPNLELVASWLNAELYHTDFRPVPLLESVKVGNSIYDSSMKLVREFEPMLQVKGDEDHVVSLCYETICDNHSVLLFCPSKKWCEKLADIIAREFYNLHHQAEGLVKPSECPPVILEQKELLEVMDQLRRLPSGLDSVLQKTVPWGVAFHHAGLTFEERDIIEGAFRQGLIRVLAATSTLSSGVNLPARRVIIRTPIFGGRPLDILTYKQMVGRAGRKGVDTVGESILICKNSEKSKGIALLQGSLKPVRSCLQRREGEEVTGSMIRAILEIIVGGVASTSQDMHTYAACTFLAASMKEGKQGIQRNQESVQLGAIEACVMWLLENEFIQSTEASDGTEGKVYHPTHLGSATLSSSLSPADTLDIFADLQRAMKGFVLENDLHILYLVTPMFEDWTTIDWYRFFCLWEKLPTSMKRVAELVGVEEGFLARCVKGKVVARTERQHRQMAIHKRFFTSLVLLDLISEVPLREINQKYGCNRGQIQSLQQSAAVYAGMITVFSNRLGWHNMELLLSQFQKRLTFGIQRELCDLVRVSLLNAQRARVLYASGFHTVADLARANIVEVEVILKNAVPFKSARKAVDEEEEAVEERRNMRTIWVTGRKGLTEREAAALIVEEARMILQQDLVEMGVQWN

The first experiment addresses T1, Polθ theta (1-899) (hPolQ) (Homo sapiens (Human), UniProt O75417). Description: Biological Assay 2: Polθ ATPase activity, NADH oxidation-coupled enzymatic assay (5 nM enzyme, 120 min). The experiment is classed as biochemical. The settings on record: Polθ (1-899) 5 nM, 100 μM ATP, 300 nM dT50 ssDNA; Examples 269 to 271; read-out: ATPase NADH coupling:Standard Screening:hPolQ IC50. On the procedure: The ability of the compounds (Example 269 to Example 271) of described herein to inhibit ATPase activity of Polθ theta (1-899) was determined using the assay described below.
Polθ Theta ATPase activity was determined by measuring the rate of ATP turn over in a NADH oxidation-coupled enzymatic assay. 11-point dilution series of compounds were used in a 384 well format for the inhibition assays. Polθ theta (1-899) (5 nM) in assay buffer (20 mM Tris HCl (pH 7.80), 80 mM KCl, 10 mM MgCl2, 1 mM DTT, 0.01% BSA, 0.01% Tween, 5% glycerol) was transferred to the test wells (20 μL), except the low control wells (20 μL of assay buffer was added to the low control wells). The plate was then incubated at room temperature for 15 min. An equal volume (20 μL) of 100 μM ATP, 300 nM dT50 (single-stranded DNA (ssDNA) containing 50 thymine bases), 300 μM NADH, 6 mM PEP, 10 U/mL lactate dehydrogenase and U/mL pyruvate kinase in assay buffer was added to all the test wells. The plate was then centrifuged at 1000 rpm for 1 min. The reaction was monitored for 120 min by measuring absorbance (λ=340 nm) in a PHERAstar FSX multimode plate reader every 3 minute. The high control (DMSO with enzyme) with low absorbance intensity represents no inhibition of ATPase reaction while the low control (DMSO with buffer) with high absorbance intensity represents full inhibition of ATPase activity. Slope of the reaction progress curves were used to calculate the rate of ATP hydrolysis. The rates were used to determine the percent inhibition using a four-parameter inhibition model to generate IC50, Hill slope and max inhibition.
Regarding `COc1cnc(Cl)cc1-c1cc(C)ncc1C(=O)Nc1nnc(OCC(C)(C)N2CCNC2=O)s1` [Example 271, 2′-chloro-5′-methoxy-6-methyl-N-(5-(2-methyl-2-(2-oxoimidazolidin-1-yl)propoxy)-1,3,4-thiadiazol-2-yl)-(4,4′-bipyridine)-3-carboxamide], the IC50 was at most 200 nM. Same read-out and setting: then `COc1cnc(Cl)cc1-c1cc(C)ncc1C(=O)Nc1nnc(OC[C@@H]2CCN(C(C)=O)C2)s1` [Example 270, (R)—N-(5-((1-acetylpyrrolidin-3-yl)methoxy)-1,3,4-thiadiazol-2-yl)-2′-chloro-5′-methoxy-6-methyl-(4,4′-bipyridine)-3-carboxamide], with 1000 to 10000 nM; and `COc1cnc(Cl)cc1-c1cc(C)ncc1C(=O)Nc1nnc(OCC2(F)CN(C)C2)s1` [Example 269, 2′-chloro-N-(5-((3-fluoro-1-methylazetidin-3-yl)methoxy)-1,3,4-thiadiazol-2-yl)-5′-methoxy-6-methyl-(4,4′-bipyridine)-3-carboxamide], with at most 200 nM.

For another experiment, the target named is T1, Polθ theta (1-899) (hPolQ). Description: Biological Assay 1: Polθ ATPase activity, NADH oxidation-coupled enzymatic assay (10 nM enzyme, 30 min). Format: biochemical. The settings on record: Polθ (1-899) 10 nM, 100 μM ATP, 300 nM dT50 ssDNA; Examples 1 to 268; read-out: ATPase NADH coupling:Standard Screening:hPolQ IC50. In a few lines:
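Polθ (1-899) at 10 nM was preincubated with compound for 15 min at room temperature in 20 mM Tris pH 7.80, 80 mM KCl, 10 mM MgCl2. An equal volume of 100 μM ATP, 300 nM dT50 ssDNA and a PK/LDH–NADH coupling system was then added. A340 was read each minute for 30 min. IC50 came from rate slopes over 10-point series with a four-parameter fit.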
As for `COc1cnc(C)c(F)c1-c1cc(C)ncc1C(=O)Nc1nnc(OCC23CCC(O)(CC2)C3)s1` [Example 217, 3′-fluoro-N-(5-((4-hydroxybicyclo(2.2.1)heptan-1-yl)methoxy)-1,3,4-thiadiazol-2-yl)-5′-methoxy-2′,6-dimethyl-(4,4′-bipyridine)-3-carboxamide], the IC50 is at most 200 nM.

For the compound `COc1cccc(F)c1-c1cc(C)ncc1C(=O)Nc1nnc(OCc2ccc(C3(O)CC3)cn2)s1` [Example 48, 4-(2-fluoro-6-methoxyphenyl)-N-(5-((5-(1-hydroxycyclopropyl)pyridin-2-yl)methoxy)-1,3,4-thiadiazol-2-yl)-6-methylnicotinamide], the IC50 was at most 200 nM. On the same count and under the same terms, as for `COc1cccc(F)c1-c1cc(C)ncc1C(=O)Nc1nnc(OCc2ccc3c(n2)CCC[C@@H]3O)s1` [Example 116, 4-(2-fluoro-6-methoxyphenyl)-N-(5-(((S)-5-hydroxy-5,6,7,8-tetrahydroquinolin-2-yl)methoxy)-1,3,4-thiadiazol-2-yl)-6-methylnicotinamide], the figure is at most 200 nM; as for `COc1cnc(Cl)cc1-c1cc(C)ncc1C(=O)Nc1nnc(OC[C@H]2CC[C@@](C)(O)CC2)s1` [Example 215, 2′-chloro-N-(5-(((1s,4s)-4-hydroxy-4-methylcyclohexyl)methoxy)-1,3,4-thiadiazol-2-yl)-5′-methoxy-6-methyl-(4,4′-bipyridine)-3-carboxamide], at most 200 nM. On the same count and under the same terms, as for `COc1cnc(Cl)cc1-c1cc(C)ncc1C(=O)Nc1nnc(OC[C@@]23COC[C@@H]2C3)s1` (single isomer, unassigned) [Example 230], the figure is at most 200 nM; as for `COc1cccc(F)c1-c1cnncc1C(=O)Nc1nnc(OCc2ccc(C(C)(C)O)cn2)s1` [Example 81, 5-(2-fluoro-6-methoxyphenyl)-N-(5-((5-(2-hydroxypropan-2-yl)pyridin-2-yl)methoxy)-1,3,4-thiadiazol-2-yl)pyridazine-4-carboxamide], at most 200 nM; as for `COc1ccc(C)cc1-c1cc(C)ncc1C(=O)Nc1nnc(OCc2ccc(Cl)cn2)s1` [Example 44, N-(5-((5-chloropyridin-2-yl)methoxy)-1,3,4-thiadiazol-2-yl)-4-(2-methoxy-5-methylphenyl)-6-methylpyridine-3-carboxamide], at most 200 nM. Same read-out and setting: then `COc1cnc(Cl)cc1-c1cc(C)ncc1C(=O)Nc1nnc(OC[C@H]2CCC[C@@H]2O)s1` (single isomer, unassigned) [Example 256, 2′-chloro-N-(5-((2-hydroxycyclopentyl)methoxy)-1,3,4-thiadiazol-2-yl)-5′-methoxy-6-methyl-(4,4′-bipyridine)-3-carboxamide], with at most 200 nM.
